Reference: patent publication US20140037642A1, “METHODS AND COMPOSITIONS RELATING TO INHIBITION OF IGF-1R” (AMGEN INC., priority 2011, published 2014)
Where “and” joins values, the source holds several entries; their conditions need not be identical. Equal values may be shown once. Read-outs that look alike come from different tables or passages of the source.

How the values were obtained:
colorectal cancer (CRC) = conditions: Study Drug 6 mg/kg + panitumumab 6 mg/kg
From the text: Another study was done in subjects with colorectal cancer (CRC).

non-CRC tumors = conditions: Study Drug 6 mg/kg + panitumumab 6 mg/kg
[1] = Subject #1, Nerve Sheath, 3 mg/Kg
[2] = Subject #4, Colorectal, 10 mg/Kg
[3] = Subject #8, diagnosis Unknown, 1 mg/Kg
[4] = Subject #10, Adenoid R eye, 20 mg/Kg
[5] = Subject #11, Carcinoid, 3 mg/Kg
[6] = Subject #11, Carcinoid, 3 mg/Kg cohort
[7] = twelve subjects, 1 to 20 mg/kg, RECIST

Description for tumors in human subjects: Each subject was assigned to one of six dosing cohorts. […] The subjects also received individualized palliative care, as appropriate, to reduce the severity of their symptoms.
Response to treatment was assessed using the Response Evaluation Criteria in Solid Tumors (RECIST) criteria as described in Therasse et al. 2000, J Natl Cancer Inst. […] Briefly, prior to administration of the first dose, each subject was given a computerized tomography (CT) scan to determine the length of the largest measurable tumor along its longest diameter (“Baseline TM (cm)” in Table 9). CT scans were used to measure the same tumors along the same diameter at certain points after initiation of treatment (“Day X Tumor (cm)” in Table 9). Each such measurement was compared to the baseline tumor measurement for the same subject to calculate the percent increase or decrease in tumor size.

Ganitumab was tested, and the “response according to RECIST at day 434” value (tumors in human subjects; CR subject, Ewing's sarcoma, 12 mg/kg at 14 day intervals) was “CR (100% reduction in tumor dimension)”, the “PET scan, uptake of labeled glucose by tumor” value (tumors in human subjects; CR subject, Ewing's sarcoma, 12 mg/kg, day 50) was “no detectable uptake of labeled glucose” and the “decrease in tumor size from baseline (RECIST)” value (tumors in human subjects; CR subject, Ewing's sarcoma, 12 mg/kg, day 50, CT scan) was 78%. For the same substance, the “maximum RECIST tumor dimension reduction” value (tumors in human subjects; PR subject, mid gut carcinoid tumor, 3 mg/kg at 14 day intervals) was 63%, the “RECIST tumor dimension decrease” value (tumors in human subjects; PR subject, mid gut carcinoid tumor, 3 mg/kg, after 33 weeks in the trial) was 48% and the RECIST tumor dimension (tumors in human subjects; PR subject, mid gut carcinoid tumor, 3 mg/kg, after 33 weeks in the trial, baseline 13.1 cm) was 6.8 cm. The “Day 50 Tumor (cm)” value (tumors in human subjects; [1]) was 1.4 cm, the “Day 50 Tumor, percent change vs baseline” value (tumors in human subjects; [1]) was “(+27%)” and the “Day 50 Tumor (cm)” value (tumors in human subjects; Subject #2, Prostate, 10 mg/Kg) was 18.8 cm. The “Day 50 Tumor, percent change vs baseline” value (tumors in human subjects; Subject #2, Prostate, 10 mg/Kg) was “(+21%)”, the “Day 50 Tumor (cm)” value (tumors in human subjects; Subject #3, Ovarian, 20 mg/Kg) was 18.6 cm and the “Day 50 Tumor, percent change vs baseline” value (tumors in human subjects; Subject #3, Ovarian, 20 mg/Kg) was “(+17%)”. The “Day 50 Tumor (cm)” value (tumors in human subjects; [2]) was 45.3 cm, the “Day 50 Tumor, percent change vs baseline” value (tumors in human subjects; [2]) was “(+7%)” and the “Day 50 Tumor (cm)” value (tumors in human subjects; Subject #5, Thymus, 1 mg/Kg) was 10.4 cm. The “Day 50 Tumor, percent change vs baseline” value (tumors in human subjects; Subject #5, Thymus, 1 mg/Kg) was “(+4%)”, the “Day 50 Tumor (cm)” value (tumors in human subjects; Subject #6, Melanoma, 10 mg/Kg) was 28.4 cm and the “Day 50 Tumor, percent change vs baseline” value (tumors in human subjects; Subject #6, Melanoma, 10 mg/Kg) was “(+1%)”. The “Day 50 Tumor (cm)” value (tumors in human subjects; Subject #7, Adenoid, 1 mg/Kg) was 30.9 cm, the “Day 50 Tumor, percent change vs baseline” value (tumors in human subjects; Subject #7, Adenoid, 1 mg/Kg) was “(−1%)” and the “Day 50 Tumor (cm)” value (tumors in human subjects; [3]) was 18.2 cm. For the same substance, the “Day 50 Tumor, percent change vs baseline” value (tumors in human subjects; [3]) was “(−2%)”, the “Day 106 Tumor (cm)” value (tumors in human subjects; [3]) was 18.9 cm and the “Day 106 Tumor, percent change vs baseline” value (tumors in human subjects; [3]) was “(+2%)”. The “Day 162 Tumor (cm)” value (tumors in human subjects; [3]) was 23.2 cm, the “Day 162 Tumor, percent change vs baseline” value (tumors in human subjects; [3]) was “(+25%)” and the “Day 50 Tumor (cm)” value (tumors in human subjects; Subject #9, Breast, 20 mg/Kg) was 4.7 cm. For the same substance, the “Day 50 Tumor, percent change vs baseline” value (tumors in human subjects; Subject #9, Breast, 20 mg/Kg) was “(−2%)”, the “Day 50 Tumor (cm)” value (tumors in human subjects; [4]) was 35.2 cm and the “Day 50 Tumor, percent change vs baseline” value (tumors in human subjects; [4]) was “(−9%)”. For the same substance, the “Day 50 Tumor (cm)” value (tumors in human subjects; [5]) was 14 cm, the “Day 50 Tumor, percent change vs baseline” value (tumors in human subjects; [5]) was “(+7%)” and the “Day 106 Tumor (cm)” value (tumors in human subjects; [5]) was 11 cm. The “Day 106 Tumor, percent change vs baseline” value (tumors in human subjects; [5]) was “(−16%)”, the “Day 169 Tumor (cm)” value (tumors in human subjects; [5]) was 10.6 cm and the “Day 169 Tumor, percent change vs baseline” value (tumors in human subjects; [5]) was “(−19%)”. The “Day 225 Tumor (cm)” value (tumors in human subjects; [5]) was 8.4 cm, the “Day 225 Tumor, percent change vs baseline” value (tumors in human subjects; [5]) was “(−36%)” and the “Day 281 Tumor (cm)” value (tumors in human subjects; [6]) was 8.2 cm. The “Day 281 Tumor, percent change vs baseline” value (tumors in human subjects; [6]) was “(−37%)”, the “Day 338 Tumor (cm)” value (tumors in human subjects; [6]) was 6.8 cm and the “Day 338 Tumor, percent change vs baseline” value (tumors in human subjects; [6]) was “(−48%)”. For the same substance, the “Day 50 Tumor (cm)” value (tumors in human subjects; Subject #12, Ewing's, 12 mg/Kg) was 2.2 cm, the “Day 50 Tumor, percent change vs baseline” value (tumors in human subjects; Subject #12, Ewing's, 12 mg/Kg) was “(−78%)” and the “Day 85 Tumor, percent change vs baseline” value (tumors in human subjects; Subject #12, Ewing's, 12 mg/Kg) was “(−100%)”. For the same substance, the “Day 85 Tumor (cm)” value (tumors in human subjects; Subject #12, Ewing's, 12 mg/Kg, listed as Study Drug) was 0 cm and 0.0 cm, the “number of subjects with a reduction in tumor size of at least 30%” value (tumors in human subjects; [7]) was “two” and the “number of subjects with best response progressive disease (PD)” value (tumors in human subjects; [7]) was “two”. For the same substance, the “Wk 8 change (RECIST)” value (colorectal cancer (CRC)) was −27%, the “Wk 8 change (WHO)” value (colorectal cancer (CRC); CT) was −39% and the “best response (WHO criteria)” value (non-CRC tumors; subject with a GE Junction tumor) was “stable disease”. The “best response (WHO criteria)” value (non-CRC tumors; subject with a pancreatic tumor) was “stable disease” and the “best response (WHO criteria)” value (non-CRC tumors; subject with a thyroid tumor) was “progressive disease”.
